Source: patent publication US20260137697A1, “THIAZOLO[5,4-D]PYRIMIDINE COMPOUNDS, COMPOSITIONS COMPRISING THEM AND USES THEREOF” (University de Montreal, priority 2022, published 2026)
Like-named read-outs stand apart in the source and are kept apart here.

Assays:
Format in all cases: cell-based, human
pERK, NCIH1755 cells = test: Phospho-ERK inhibition, AlphaLISA p-ERK 1/2, NCIH1755; conditions: Table D-2; for IC50: NCIH1755 (BRAF G469A); for pERK value in parentheses, % inhibition (Ymin): NCIH1755, lowest point of IC50 curve
Method: (§1) All cancer cell lines (A375, A101D, A2058, RKO, HT29 SK-MEL 30, IPC298, HepG2, HCT-116, Lovo, SW620, SW480, NCI-H358, NCI-H2122, Calu-6, NCIH2087, NCIH1755, NCIH1666 and Mewo) were obtained from ATCC and cultured in RPM1-1640 medium (Gibco) supplemented with 5% heat inactivated fetal bovine serum (FBS, Wisent) at 37° C. under 5% CO2. Cells were maintained in T175 flasks (Greiner). They were passaged by removing the culture medium, washing once in 10 mL of room temperature Phosphate Buffered Saline (PBS; Wisent) and incubating at 37° C. with 2 mL of 0.05% Trypsin (Thermo-Fisher). Trypsin was then inactivated by adding complete growth medium and the cells were then replated in a T175 culture dish at the appropriate dilution. All cell lines were routinely tested for mycoplasma contamination. Tissue type and mutational status of each cell line can be found in Table B.
(c) Measurement of Phospho-ERK Inhibition in Cultivated Human Cancer Cell Lines by the AlphaLISA® SureFire® Ultra™ p-ERK 1/2 (Thr2O2/Tyr204)
AlphaLISA® SureFire® Ultra™ p-ERK 1/2 (Thr202/Tyr204) analysis was conducted on cells plated in 100 μL of complete RPMI-1640 growth medium in 96-well flat-bottomed transparent dishes (Costar) at a density indicated in Table C. Cells were maintained overnight at 37° C. under 5% CO2 before treatment with compounds' dilution series for one hour. The cell density in cells/cm^2 corresponds to cell number divided by the area of one well of a 96-well plate (0.143 cm^2).
In a dilution series 100 μL/well of test substance dilution prepared in complete RPMI-1640 growth media was added to the cells. The dilution series is selected so that ten concentrations cover a range from 10 μM to 0.33 nM. If necessary, the initial concentration of 10 μM is increased to 100 μM or lowered to 1 μM (as in the case of A375 and H1666 cells, which are generally more sensitive to the compounds) and further dilution is carried out accordingly. The final concentration of DMSO in the assay is set at 0.5%.
After treatment, media was removed, and cells were lysed in 50 μL of 1× AlphaScreen Ultra Lysis Buffer (Perkin Elmer). The AlphaLISA® SureFire® Ultra™ p-ERK 1/2 (Thr202/Tyr204) (PerkinElmer) reactions were performed with 5 μL of cell lysate according to the manufacturer's specifications in 384-well proxyplates (Perkin Elmer) followed by overnight incubation of the reactions at room temperature in a humidified chamber. After completion of the reactions, the signals were recorded on an EnVision plate reader (Perkin Elmer) using built in AlphaLISA® settings.
The effect of each compound dilution on the pERK signal was expressed in % inhibition and calculated as follows. An internal 100% inhibition control (1 μM trametinib, cat. No. HY-10999; MedChem Express; CAS No. 871700-17-3) was included in each plate and used as a measure of pERK background. First, the value obtained for trametinib was subtracted from each data point. The average of DMSO (vehicle) controls (set as 0% inhibition) was established and used to calculate % inhibition:
(§2) The ability of each compound to inhibit pERK signal was expressed as an IC50 value obtained by plotting the inhibition values for each data point of a dilution series and fitting the obtained curves using a log(agonist) versus response—variable slope (four parameters) function using GraphPadPrism (V7.0) or Dotmatics Screening Ultra platform.
When present, paradoxical pERK induction is inferred from the negative % inhibition values observed in the pERK IC50 curves of a compound.

A375 cells = test: Proliferation inhibition, CellTiter-Glo, A375; conditions: Table D-1, A375 (BRAF V600E), 3 days, read-out: Prolif. (proliferation EC50)
Method: as §1
(§3) CellTiter-Glo® viability analysis was conducted on cells plated in 100 μL of complete RPMI-1640 growth medium in 96-well flat-bottomed white opaque plates (Greiner or Croning) at a density indicated in Table E (for each CCL, number of cells plated per well of a 96-well plate to perform the CellTiter-Glo® cell viability assay). The cell density in cells/cm^2 would correspond to cell number divided by the area of one well of a 96-well plate (0.32 cm^2). […]
(§4) After 3 days of incubation, the growth media were removed by aspiration and 60 μL of diluted CellTiter-Glo® reagent (10 μL CellTiter-Glo® reagent+50 μL of PBS) was added to each well. […] Luminescence signals were then acquired on a Synergy Neo2 plate reader (Biotek).
(§5) The effect of each compound dilution on the proliferation of cancer cell lines was expressed in % inhibition and calculated as follows. […]
as §2, with “proliferation” for “pERK signal”, “a EC50” for “an IC50”, “effect” for “inhibition”

HT-29 cells = test: Proliferation inhibition, CellTiter-Glo, HT-29; conditions: Table D-1, HT-29 (BRAF V600E), 3 days, read-out: Prolif. (proliferation EC50)
Method: as §1, §3, §4, §5
as §2, with “proliferation” for “pERK signal”, “a EC50” for “an IC50”, “effect” for “inhibition”

NCI-H358 cells = test: Proliferation inhibition, CellTiter-Glo, NCI-H358; conditions: Table D-2, NCI-H358 (KRAS-G12C), 3 days, read-out: Prolif. (proliferation EC50)
Method: as §1, §3, §4, §5
as §2, with “proliferation” for “pERK signal”, “a EC50” for “an IC50”, “effect” for “inhibition”

NCIH1755 cells = test: Proliferation inhibition, CellTiter-Glo, NCIH1755; conditions: Table D-2, NCIH1755 (BRAF G469A), 3 days, read-out: Prolif. (proliferation EC50)
Method: as §1, §3, §4, §5
as §2, with “proliferation” for “pERK signal”, “a EC50” for “an IC50”, “effect” for “inhibition”

IC50 (pERK, NCIH1755 cells; Homo sapiens, NCI-H1755) [nM] | EC50 (A375 cells; Homo sapiens, A-375, 72 h) [nM] | EC50 (HT-29 cells; Homo sapiens, 72 h) [nM] | EC50 (NCI-H358 cells; Homo sapiens, 72 h) [nM] | IC50 (pERK, NCIH1755 cells) [nM] | EC50 (A375 cells) [nM] | EC50 (HT-29 cells) [nM] | EC50 (NCI-H358 cells) [nM] | Structure (SMILES) | pERK value in parentheses, % inhibition (Ymin) (pERK, NCIH1755 cells) | EC50 (NCIH1755 cells; Homo sapiens, NCI-H1755, 72 h) [nM] | EC50 (NCIH1755 cells) [nM]
30 to 300 | < 300 | < 300 | 300 to 3000 |  |  |  |  | Cc1ccc2c(Nc3cccc(Cl)c3F)nccc2c1NC(=O)c1csc2c(N)ncnc12 [Belvarafenib, reference compound] | (−79) % | > 3000 | 
 |  |  |  | < 30 | < 300 | < 300 | < 300 | Cc1c(F)cccc1S(=O)(=O)Nc1ccc(F)c(Nc2ncnc3sc(-n4cc(C(=O)N5C6CCC5CN(C)C6)c5ccccc54)nc23)c1F [Example 44] | (−9) % |  | < 300
 |  |  |  | < 30 | < 300 | < 300 | < 300 | N#CC1(c2cccc3c2ncn3-c2nc3c(Nc4c(F)ccc(NS(=O)(=O)c5cccc(Cl)c5Cl)c4F)ncnc3s2)CC1 [Example 122] | (11) % |  | < 300
